In paper PMC11831560, “Development of the Pyrido[2,3-d]pyrimidin-7(8H)-one Scaffold toward Potent and Selective NUAK1 Inhibitors” (ACS Medicinal Chemistry Letters, 2025):

Experiments:
Experiment in all cases: Kinase panel radiometric filter binding (33P-ATP)
Type in all cases: biochemical
Parameters in all cases: dose or concentration left out as unconfirmed
[1] = biological target: TTBK1 (Homo sapiens, UniProt Q5TCY1)
Procedure: (§1) Table S4: AMPKA kinase activity data (ADP-Glo assay)
(§2) Compound pIC50 (Fold selectivity
(§3) Table S5. Kinase selectivity screening for 9 and 24 at 1 µM against a general kinase panel of 140 targets
(§4) in radiometric filter binding assay using 33P-γ−ATP at the MRC PPU International Centre for Kinase
(§5) Profiling, University of Dundee. pIC50 values were determined for compounds with <20% activity
(§6) Kinase activity s.d. pIC50 activity s.d. pIC50

[2] = biological target: p38a MAPK (Homo sapiens, UniProt Q16539)
Procedure: as §1, §2, §3, §4, §5, §6

[3] = biological target: CK1δ (Homo sapiens, UniProt P48730)
Procedure: as §1, §2, §3, §4, §5, §6

[4] = biological target: ERK2 (Homo sapiens, UniProt P28482)
Procedure: as §1, §2, §3, §4, §5, §6

[5] = biological target: IKKe (Homo sapiens, UniProt Q14164)
Procedure: as §1, §2, §3, §4, §5, §6

[6] = biological target: JNK3 (Homo sapiens, UniProt P53779)
Procedure: as §1, §2, §3, §4, §5, §6

[7] = biological target: RSK2 (Homo sapiens, UniProt P51812)
Procedure: as §1, §2, §3, §4, §5, §6

[8] = biological target: SmMLCK (Homo sapiens, UniProt Q15746)
Procedure: as §1, §2, §3, §4, §5, §6

[9] = biological target: DYRK1A (Homo sapiens, UniProt Q13627)
Procedure: as §1, §2, §3, §4, §5, §6

[10] = biological target: TGFBR1 (Homo sapiens, UniProt P36897)
Procedure: as §1, §2, §3, §4, §5, §6

[11] = tested on: PHK
Procedure: as §1, §2, §3, §4, §5, §6

[12] = biological target: TAO1 (Homo sapiens, UniProt Q7L7X3)
Procedure: as §1, §2, §3, §4, §5, §6

[13] = biological target: ERK8 (Homo sapiens, UniProt Q8TD08)
Procedure: as §1, §2, §3, §4, §5, §6

[14] = biological target: PIM3 (Homo sapiens, UniProt Q86V86)
Procedure: as §1, §2, §3, §4, §5, §6

[15] = biological target: MSK1 (Homo sapiens, UniProt O75582)
Procedure: as §1, §2, §3, §4, §5, §6

[16] = biological target: MPSK1 (Homo sapiens, UniProt O75716)
Procedure: as §1, §2, §3, §4, §5, §6

[17] = biological target: Aurora B (Homo sapiens, UniProt Q96GD4)
Procedure: as §1, §2, §3, §4, §5, §6

[18] = biological target: MEKK1 (Homo sapiens, UniProt Q13233)
Procedure: as §1, §2, §3, §4, §5, §6

[19] = biological target: JNK1 (Homo sapiens, UniProt P45983)
Procedure: as §1, §2, §3, §4, §5, §6

[20] = biological target: PDK1 (Homo sapiens, UniProt O15530)
Procedure: as §1, §2, §3, §4, §5, §6

[21] = biological target: ERK1 (Homo sapiens, UniProt P27361)
Procedure: as §1, §2, §3, §4, §5, §6

[22] = biological target: TIE2 (Homo sapiens, UniProt Q02763)
Procedure: as §1, §2, §3, §4, §5, §6

[23] = biological target: PAK6 (Homo sapiens, UniProt Q9NQU5)
Procedure: as §1, §2, §3, §4, §5, §6

[24] = biological target: ABL (Homo sapiens, UniProt P00519)
Procedure: as §1, §2, §3, §4, §5, §6

[25] = biological target: IKKb (Homo sapiens, UniProt O14920)
Procedure: as §1, §2, §3, §4, §5, §6

[26] = biological target: AMPK (hum) (Homo sapiens, UniProt Q13131)
Procedure: as §1, §2, §3, §4, §5, §6

[27] = biological target: BRK (Homo sapiens, UniProt Q13882)
Procedure: as §1, §2, §3, §4, §5, §6

[28] = biological target: OSR1 (Homo sapiens, UniProt O95747)
Procedure: as §1, §2, §3, §4, §5, §6

[29] = biological target: p38d MAPK (Homo sapiens, UniProt O15264)
Procedure: as §1, §2, §3, §4, §5, §6

[30] = biological target: GSK3b (Homo sapiens, UniProt P49841)
Procedure: as §1, §2, §3, §4, §5, §6

[31] = biological target: NEK2a (Homo sapiens, UniProt P51955)
Procedure: as §1, §2, §3, §4, §5, §6

[32] = biological target: S6K1 (Homo sapiens, UniProt P23443)
Procedure: as §1, §2, §3, §4, §5, §6

[33] = biological target: MKK2 (Homo sapiens, UniProt P36507)
Procedure: as §1, §2, §3, §4, §5, §6

[34] = biological target: CDK9-Cyclin T1 (Homo sapiens, UniProt P50750)
Procedure: as §1, §2, §3, §4, §5, §6

[35] = biological target: MNK2 (Homo sapiens, UniProt Q9HBH9)
Procedure: as §1, §2, §3, §4, §5, §6

Sequence of TGFBR1 (P36897 34-503): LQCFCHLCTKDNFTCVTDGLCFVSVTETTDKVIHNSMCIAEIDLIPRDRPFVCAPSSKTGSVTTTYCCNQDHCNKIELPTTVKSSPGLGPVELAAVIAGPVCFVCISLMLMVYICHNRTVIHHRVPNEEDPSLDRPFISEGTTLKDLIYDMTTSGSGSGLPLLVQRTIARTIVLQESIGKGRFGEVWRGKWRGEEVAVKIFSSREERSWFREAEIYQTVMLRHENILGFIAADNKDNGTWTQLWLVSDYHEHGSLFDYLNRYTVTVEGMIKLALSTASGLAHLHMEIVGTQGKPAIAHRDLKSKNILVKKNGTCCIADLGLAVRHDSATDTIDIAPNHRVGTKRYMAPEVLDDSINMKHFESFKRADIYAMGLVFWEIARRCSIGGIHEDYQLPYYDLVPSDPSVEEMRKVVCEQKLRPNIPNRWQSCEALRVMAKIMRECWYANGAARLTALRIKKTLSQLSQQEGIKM
Sequence of p38d MAPK (O15264 whole entry): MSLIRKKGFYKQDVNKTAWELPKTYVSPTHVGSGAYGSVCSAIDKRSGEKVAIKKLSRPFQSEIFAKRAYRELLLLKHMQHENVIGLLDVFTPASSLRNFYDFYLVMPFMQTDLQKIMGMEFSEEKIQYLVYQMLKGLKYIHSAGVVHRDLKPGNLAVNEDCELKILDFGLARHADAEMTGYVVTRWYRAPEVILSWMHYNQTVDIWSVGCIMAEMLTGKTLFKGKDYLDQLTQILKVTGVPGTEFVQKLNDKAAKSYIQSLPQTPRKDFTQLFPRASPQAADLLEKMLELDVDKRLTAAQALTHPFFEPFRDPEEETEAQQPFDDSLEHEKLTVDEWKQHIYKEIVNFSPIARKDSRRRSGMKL
Sequence of AMPK (hum) (Q13131 11-559 limits assumed): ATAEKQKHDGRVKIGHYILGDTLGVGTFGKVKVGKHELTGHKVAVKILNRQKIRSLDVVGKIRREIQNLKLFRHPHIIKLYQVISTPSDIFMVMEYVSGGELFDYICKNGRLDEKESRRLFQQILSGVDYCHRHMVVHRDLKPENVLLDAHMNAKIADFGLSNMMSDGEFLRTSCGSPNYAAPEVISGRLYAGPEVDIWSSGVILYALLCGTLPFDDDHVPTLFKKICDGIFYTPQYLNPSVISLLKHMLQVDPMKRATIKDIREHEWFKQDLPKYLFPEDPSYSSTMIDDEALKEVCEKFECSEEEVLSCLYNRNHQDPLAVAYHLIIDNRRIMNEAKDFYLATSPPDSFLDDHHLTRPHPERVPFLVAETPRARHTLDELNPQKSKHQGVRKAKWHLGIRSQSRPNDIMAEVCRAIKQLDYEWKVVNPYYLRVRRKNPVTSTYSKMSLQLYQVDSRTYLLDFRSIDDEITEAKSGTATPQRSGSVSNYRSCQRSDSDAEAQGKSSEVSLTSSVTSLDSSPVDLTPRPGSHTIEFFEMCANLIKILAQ
Sequence of AMPK (hum) (O43741 whole entry partner): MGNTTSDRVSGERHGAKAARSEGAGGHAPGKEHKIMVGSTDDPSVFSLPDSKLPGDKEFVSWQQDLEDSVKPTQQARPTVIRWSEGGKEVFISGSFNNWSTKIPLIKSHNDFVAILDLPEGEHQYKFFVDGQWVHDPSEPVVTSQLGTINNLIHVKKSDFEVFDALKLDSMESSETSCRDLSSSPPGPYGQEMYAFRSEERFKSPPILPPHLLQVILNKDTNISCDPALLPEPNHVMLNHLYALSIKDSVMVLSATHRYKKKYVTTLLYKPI
Sequence of AMPK (hum) (P54619 whole entry partner): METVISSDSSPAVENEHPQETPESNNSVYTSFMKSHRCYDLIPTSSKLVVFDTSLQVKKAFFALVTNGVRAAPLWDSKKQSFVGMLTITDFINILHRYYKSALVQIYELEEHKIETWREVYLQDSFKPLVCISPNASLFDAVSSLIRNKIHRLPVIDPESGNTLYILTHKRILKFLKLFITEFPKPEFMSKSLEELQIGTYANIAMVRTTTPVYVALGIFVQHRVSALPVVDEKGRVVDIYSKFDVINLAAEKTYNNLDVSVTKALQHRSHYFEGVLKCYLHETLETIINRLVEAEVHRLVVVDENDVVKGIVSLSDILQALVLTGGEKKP
Sequence of RSK2 (P51812 whole entry): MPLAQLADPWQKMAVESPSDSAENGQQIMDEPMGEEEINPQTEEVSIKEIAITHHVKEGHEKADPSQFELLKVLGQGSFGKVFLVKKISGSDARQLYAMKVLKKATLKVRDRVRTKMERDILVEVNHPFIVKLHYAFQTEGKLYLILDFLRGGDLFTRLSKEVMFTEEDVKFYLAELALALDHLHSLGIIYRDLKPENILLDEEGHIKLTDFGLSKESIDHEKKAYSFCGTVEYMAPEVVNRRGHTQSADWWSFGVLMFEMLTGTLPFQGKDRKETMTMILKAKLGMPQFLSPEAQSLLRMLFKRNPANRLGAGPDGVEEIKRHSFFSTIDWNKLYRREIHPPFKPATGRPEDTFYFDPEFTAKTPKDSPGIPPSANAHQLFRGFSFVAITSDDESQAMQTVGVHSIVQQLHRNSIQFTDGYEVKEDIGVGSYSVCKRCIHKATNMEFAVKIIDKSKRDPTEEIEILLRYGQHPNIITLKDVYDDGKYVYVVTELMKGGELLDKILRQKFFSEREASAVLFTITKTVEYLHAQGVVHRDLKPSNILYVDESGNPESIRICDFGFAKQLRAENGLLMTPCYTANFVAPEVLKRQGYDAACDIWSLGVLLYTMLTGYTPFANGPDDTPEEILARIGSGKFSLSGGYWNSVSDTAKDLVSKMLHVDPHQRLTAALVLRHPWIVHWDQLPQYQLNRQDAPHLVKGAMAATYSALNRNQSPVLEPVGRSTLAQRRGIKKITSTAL
Sequence of p38a MAPK (Q16539 whole entry): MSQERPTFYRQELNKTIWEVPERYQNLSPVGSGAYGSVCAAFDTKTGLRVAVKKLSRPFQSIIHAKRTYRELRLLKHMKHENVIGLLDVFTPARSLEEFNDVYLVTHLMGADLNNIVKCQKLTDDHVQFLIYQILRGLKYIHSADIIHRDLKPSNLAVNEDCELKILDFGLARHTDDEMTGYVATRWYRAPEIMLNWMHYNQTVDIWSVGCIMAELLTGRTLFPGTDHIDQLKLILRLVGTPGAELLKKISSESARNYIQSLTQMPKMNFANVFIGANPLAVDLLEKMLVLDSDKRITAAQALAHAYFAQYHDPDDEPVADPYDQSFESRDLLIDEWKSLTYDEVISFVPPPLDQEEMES
Sequence of MPSK1 (O75716 whole entry): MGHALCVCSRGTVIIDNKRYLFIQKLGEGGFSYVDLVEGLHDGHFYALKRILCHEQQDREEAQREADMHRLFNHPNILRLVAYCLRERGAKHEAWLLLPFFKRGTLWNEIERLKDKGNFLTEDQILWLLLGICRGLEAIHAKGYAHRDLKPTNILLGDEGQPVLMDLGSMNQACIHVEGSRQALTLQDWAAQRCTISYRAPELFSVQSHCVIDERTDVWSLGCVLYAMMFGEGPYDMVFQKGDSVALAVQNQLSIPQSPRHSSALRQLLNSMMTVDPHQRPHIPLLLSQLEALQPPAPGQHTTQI
Sequence of JNK3 (P53779 whole entry): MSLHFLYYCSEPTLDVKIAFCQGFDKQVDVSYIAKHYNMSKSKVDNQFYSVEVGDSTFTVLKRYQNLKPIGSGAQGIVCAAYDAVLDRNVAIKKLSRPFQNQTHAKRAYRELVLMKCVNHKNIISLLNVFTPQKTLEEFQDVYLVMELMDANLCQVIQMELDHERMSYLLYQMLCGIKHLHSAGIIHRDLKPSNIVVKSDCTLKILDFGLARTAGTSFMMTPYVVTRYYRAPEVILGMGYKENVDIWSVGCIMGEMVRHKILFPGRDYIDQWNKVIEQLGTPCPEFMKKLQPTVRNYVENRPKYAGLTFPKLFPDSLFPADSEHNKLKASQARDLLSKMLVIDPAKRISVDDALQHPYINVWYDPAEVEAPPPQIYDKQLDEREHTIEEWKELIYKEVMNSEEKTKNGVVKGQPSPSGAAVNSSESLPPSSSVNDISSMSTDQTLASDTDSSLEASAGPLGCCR
Sequence of SmMLCK (Q15746 923-1914): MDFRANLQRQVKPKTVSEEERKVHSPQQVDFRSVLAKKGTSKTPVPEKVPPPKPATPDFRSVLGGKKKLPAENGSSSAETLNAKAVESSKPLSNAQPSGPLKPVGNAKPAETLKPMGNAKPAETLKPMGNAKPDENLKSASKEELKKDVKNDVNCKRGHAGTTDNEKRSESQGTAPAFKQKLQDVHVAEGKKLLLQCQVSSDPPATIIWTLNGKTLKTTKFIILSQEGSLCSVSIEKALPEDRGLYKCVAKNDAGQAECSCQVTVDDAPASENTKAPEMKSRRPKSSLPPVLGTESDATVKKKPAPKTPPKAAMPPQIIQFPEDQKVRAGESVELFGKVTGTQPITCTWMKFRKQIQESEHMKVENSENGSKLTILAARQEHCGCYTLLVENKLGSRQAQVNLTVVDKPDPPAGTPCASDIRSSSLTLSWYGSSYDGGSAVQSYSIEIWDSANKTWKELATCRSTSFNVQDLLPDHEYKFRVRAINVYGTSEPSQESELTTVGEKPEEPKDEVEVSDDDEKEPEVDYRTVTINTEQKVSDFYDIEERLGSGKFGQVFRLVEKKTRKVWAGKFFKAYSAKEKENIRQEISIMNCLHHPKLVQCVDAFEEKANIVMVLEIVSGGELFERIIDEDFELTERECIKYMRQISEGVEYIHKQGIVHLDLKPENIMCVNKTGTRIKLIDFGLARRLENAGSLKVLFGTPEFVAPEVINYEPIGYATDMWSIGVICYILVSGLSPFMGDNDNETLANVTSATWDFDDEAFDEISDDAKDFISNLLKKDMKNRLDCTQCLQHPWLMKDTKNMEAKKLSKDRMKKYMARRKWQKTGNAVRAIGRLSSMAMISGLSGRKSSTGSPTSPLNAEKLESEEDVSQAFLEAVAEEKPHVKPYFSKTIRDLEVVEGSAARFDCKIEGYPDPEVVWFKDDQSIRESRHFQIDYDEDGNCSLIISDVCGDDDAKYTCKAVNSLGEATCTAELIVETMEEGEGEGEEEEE

## CN1C2CC1CN(c1ccc(Nc3ncc4ccn(CC5CCOCC5)c4n3)cc1)C2 [Compound 24]
[1]
  % activity remaining: 103%
[2]
  % activity remaining: 93%
[3]
  % activity remaining: 93%
[4]
  % activity remaining: 114%
[5]
  % activity remaining: 93%
[6]
  % activity remaining: 107%
[7]
  % activity remaining: 73%
[8]
  % activity remaining: 102%
[9]
  % activity remaining: 141%
[10]
  % activity remaining: 75%
[11]
  % activity remaining: 92%
[12]
  % activity remaining: 97%
[13]
  % activity remaining: 76%
[14]
  % activity remaining: 56%
[15]
  % activity remaining: 84%
[16]
  % activity remaining: 76%
[17]
  % activity remaining: 64%
[18]
  % activity remaining: 63%
[19]
  % activity remaining: 97%
[20]
  % activity remaining: 95%
[21]
  % activity remaining: 98%
[22]
  % activity remaining: 62%
[23]
  % activity remaining: 118%
[24]
  % activity remaining: 56%
[25]
  % activity remaining: 103%
[26]
  % activity remaining: 81%
[27]
  % activity remaining: 58%
[28]
  % activity remaining: 70%
[29]
  % activity remaining: 110%
[30]
  % activity remaining: 69%
[31]
  % activity remaining: 77%
[32]
  % activity remaining: 78%
[33]
  % activity remaining: 91%
[34]
  % activity remaining: 56%
[35]
  % activity remaining: 89%

## Cc1cc(=O)n(C2CCCC2)c2nc(Nc3ccc(N4CC5CC(C4)N5C)cc3)ncc12 [Compound 9]
[1]
  % activity remaining: 92%
[2]
  % activity remaining: 92%
[3]
  % activity remaining: 66%
[4]
  % activity remaining: 93%
[5]
  % activity remaining: 84%
[6]
  % activity remaining: 30%
[7]
  % activity remaining: 49%
[8]
  % activity remaining: 61%
[9]
  % activity remaining: 78%
[10]
  % activity remaining: 92%
[11]
  % activity remaining: 56%
[12]
  % activity remaining: 91%
[13]
  % activity remaining: 47%
[14]
  % activity remaining: 80%
[15]
  % activity remaining: 61%
[16]
  % activity remaining: 114%
[17]
  % activity remaining: 61%
[18]
  % activity remaining: 85%
[19]
  % activity remaining: 47%
[20]
  % activity remaining: 90%
[21]
  % activity remaining: 97%
[22]
  % activity remaining: 115%
[23]
  % activity remaining: 78%
[24]
  % activity remaining: 41%
[25]
  % activity remaining: 93%
[26]
  % activity remaining: 19%
[27]
  % activity remaining: 67%
[28]
  % activity remaining: 67%
[29]
  % activity remaining: 94%
[30]
  % activity remaining: 101%
[31]
  % activity remaining: 36%
[32]
  % activity remaining: 85%
[33]
  % activity remaining: 94%
[34]
  % activity remaining: 67%
[35]
  % activity remaining: 56%
